Reference: ChEMBL document CHEMBL1138041, “Parallel artificial membrane permeability assay: a new membrane for the fast prediction of passive human skin permeability” (J Med Chem, 2006)

Tests used:
[1] = species on record: Homo sapiens
[2] = physchem
[3] = not given; remark: listed apart in the source
[4] = not given; remark: listed apart in the source
[5] = not given; remark: listed apart in the source

Compound	log Kp ([1]; in vivo)	log Pe	pKa [2]	log Pe [3]	other results
CCc1ccc(O)cc1	-5.01 cm/s	-4.05 cm/s	10.2	–	–
Nc1cc([N+](=O)[O-])ccc1O [2-AMINO-4-NITROPHENOL]	-6.62 cm/s	-4.84 cm/s	6.7	-3.96 cm/s	–
Cc1cc(=O)n(-c2ccccc2)n1C [ANTIPYRINE]	-7.74 cm/s	-6.2 cm/s	–	-5.4 cm/s	–
CCNc1nc(Cl)nc(NC(C)C)n1 [ATRAZINE]	-5.56 cm/s	-4.21 cm/s	< 2	–	–
O=C(OCc1ccccc1)c1cccnc1 [BENZYL NICOTINATE]	-5.35 cm/s	-4.26 cm/s	3.94	-4.35 cm/s	log Pe [4]: -4.18 cm/s
Oc1ccc2ccccc2c1 [BETANAPHTHOL]	–	–	9.4	–	log Kp [1]: -5.11 cm/s; log Kp ([5]; not told): -4.08 cm/s; log Pe ([4]; not told): -4.35 cm/s; log Pe ([3]; not told): -4.41 cm/s; log Pe (not told): -4.19 cm/s
Cn1c(=O)c2c(ncn2C)n(C)c1=O [CAFFEINE]	–	–	–	–	log Kp [1]: -7.56 cm/s
O=C(O)Cc1ccccc1Nc1c(Cl)cccc1Cl [DICLOFENAC]	-5.3 cm/s	-4.33 cm/s	–	–	–
CN[C@@H](C)[C@H](O)c1ccccc1 [EPHEDRINE]	-5.75 cm/s	-4.82 cm/s	–	–	–
COc1ccc2c(c1)c(CC(=O)O)c(C)n2C(=O)c1ccc(Cl)cc1 [INDOMETHACIN]	–	-4.2 cm/s	–	–	log Kp [1]: -5.39 cm/s
c1ccc2cnccc2c1 [ISOQUINOLINE]	-5.33 cm/s	-4.05 cm/s	5.37	–	–
CC(C(=O)O)c1cccc(C(=O)c2ccccc2)c1 (stereo unspecified) [KETOPROFEN]	-4.7 cm/s	–	–	–	–
COC(=O)c1cccnc1 [METHYL NICOTINATE]	-6.04 cm/s	-4.32 cm/s	3.84	–	–
CN1CCC[C@H]1c1cccnc1 [NICOTINE]	–	–	8.08	–	log Kp [1]: -5.26 cm/s; log Kp ([5]; not told): -4.29 cm/s; log Pe ([4]; not told): -4.86 cm/s; log Pe ([3]; not told): -4.23 cm/s; log Pe (not told): -4.58 cm/s
O=[N+]([O-])c1ccc(O)cc1 [P-NITROPHENOL]	-5.81 cm/s	-4.33 cm/s	6.9	-4.09 cm/s	log Kp [5]: -5.08 cm/s; log Pe [4]: -5.24 cm/s
Oc1ccc(Cl)cc1 [PARACHLOROPHENOL]	-5 cm/s	-4.1 cm/s	9.26	–	–
CCC1(c2ccccc2)C(=O)NC(=O)NC1=O [PHENOBARBITAL]	–	-5.15 cm/s	7.49	-4.16 cm/s	log Kp [1]: -6.9 cm/s
Oc1ccccc1 [PHENOL]	–	–	–	–	log Kp [1]: -5.54 cm/s; log Kp ([5]; not told): -4.45 cm/s; log Pe ([4]; not told): -4.53 cm/s; log Pe ([3]; not told): -4 cm/s; log Pe (not told): -4.14 cm/s
CN1C(C(=O)Nc2ccccn2)=C(O)c2ccccc2S1(=O)=O [PIROXICAM]	-6.02 cm/s	-4.35 cm/s	–	–	–
CC(=O)[C@H]1CC[C@H]2[C@@H]3CCC4=CC(=O)CC[C@]4(C)[C@H]3CC[C@]12C [PROGESTERONE]	-5.08 cm/s	–	–	–	log Pe ([4]; not told): -4.31 cm/s; log Pe ([3]; not told): -4.63 cm/s; log Pe (not told): -4.56 cm/s
Oc1cccc(O)c1 [RESORCINOL]	–	-5.62 cm/s	9.21	-4.66 cm/s	–
O=C(O)c1ccccc1O [SALICYLIC ACID]	–	–	–	–	log Kp ([5]; not told): -4.7 cm/s; log Pe ([4]; not told): -4.74 cm/s; log Pe ([3]; not told): -3.98 cm/s; log Pe (not told): -4.16 cm/s
Cc1ccc(C(C)C)c(O)c1 [THYMOL]	-4.83 cm/s	-4.34 cm/s	10.6	-4.23 cm/s	log Kp [5]: -3.68 cm/s; log Pe [4]: -4.11 cm/s
